US7960508B2, “Peptide having cytotoxicity inhibitory activity and method of screening these peptide having cytotoxicity inhibitory activity” (Juridical Foundation The Chemo-Sero-Therapeutic Research …, priority 2001, dated 2011)
Non-standard residues stand in square brackets, D forms with d. Residues, ends and D or L forms follow the SMILES beside them. No end group written: not given here. Sec = N[C@@H](C[SeH])C(=O)O

How the values were obtained:
[1] = tested on: Dami cells; test: Cytotoxicity induced by fatty acid and inhibitory activity thereto (Reference Example 2); conditions: for fatty acid concentration inducing cytotoxicity: human
Description: To 1 ml Dami cells (1×10^6 cells/dish/3 ml), which can be subcultured in serum free medium SFO3 (manufactured by Sanko Jun-yaku K.K.) containing 0.05 μM 2ME and 0.1% BSA, was added 2 ml 1:2:2 mixed medium (SA medium) of RPMI 1640/D-MEM/F-12. The cells were cultured for three days and recovered for assay. The cells were washed twice with SA/0.05% fatty acid free BSA (manufactured by Wako Jun-yaku K.K.) and suspended at 3×10^4 cells/ml in the same medium containing 2 to 16 μM arachidonic acid, linoleic acid or linolenic acid. The cell suspension was added to a 96-well plate in each 198 μl for wells for sample addition or in each 100 μl for wells for serial dilution.
To the wells for sample addition was added each 2 μl of 100 μM assay sample and, after stirring, a serial dilution was made with the wells containing 100 μl cell suspension. The plate was incubated at 37° C. in CO2 incubator for 4 to 5 days.

[2] = tested on: Dami cells; test: Screening of efficacious peptides: cytotoxicity-inhibitory activity (Example 3); type: cell-based; conditions: for Activity/1 mM Sec: cytotoxicity-inhibitory activity per 1 mM selenocysteine
Description: (§1) The cells were washed twice with 50% PBS/SA/0.03% HSA (manufactured by SIGMA) and suspended in the same medium at 3×10^4 cells/ml.
(§2) For assessment, it was examined to what folds of dilution of tested samples the cells could survive in view of the fact that on Day 4 the cells in wells without the activity were put to death whereas the cells in wells with the activity survived.
Cytotoxicity-inhibitory activity was determined for each of the peptides obtained above as described in Reference Example 1 and in accordance with Reference Example 2. As a result, selenocysteine-containing peptides, Peptide 3 through Peptide 16, were confirmed to have the cytotoxicity-inhibitory activity.

[3] = tested on: Dami cells; test: Minimum concentration for cytotoxic effect / effective minimum concentration (Example 2); type: cell-based
Description: Using Dami cells (described in Greenberg S. M. et al., Blood, vol. 72, p. 1968-1977 (1988)) for use in assay system for the cytotoxicity-inhibitory activity, the cells were washed twice with assay medium (50% PBS/SA/0.03% HSA (manufactured by SIGMA) or SA/0.05% BSA free from fatty acid (WAKO)/4 μM long-chain polyvalent fatty acid (e.g. arachidonic acid, linoleic acid or linolenic acid)) and suspended in the same medium at 3×10^4 cells/ml.

[4] = tested on: intracellular GPX (glutathione peroxidase) activity in Dami cells; test: Increase in intracellular GPX (glutathione peroxidase) activity (Example 5); type: cell-based, human
Description: The resulting cells were suspended in SA/0.01% BSA at 5×10^5 cells/ml. To 1 ml of this cell suspension were added samples at a fixed concentration so as to compare a concentration that was effective for increase in GPX activity in the samples.
The samples included a selenoprotein P fragment, a synthetic peptide, selenocystine, selenomethionine, Ebselen and sodium selenite. The effect was compared among these samples. […] See FIG. 4 in which the axis of abscissas indicates a percent GPX activity induced by various samples with the GPX activity induced by addition of 10 nM selenoprotein P fragment being 100% while culture of Dami cells.

[5] = tested on: Dami cells; test: Assessment system for activity to inhibit cytotoxicity induced by addition of albumin (Reference Example 1); type: cell-based
Description: As one of preferable embodiments, a culture system of Dami cells, human megakaryoblasts, with serum free culture medium supplemented with albumin was used for screening. […] A diluted sample of active fractions was added to this culture system so that the cytotoxicity-inhibitory activity could be assessed.
as §1, §2

[6] = 1 nM, 10 nM selenoprotein P fragment being 100%

vitamin E
effective concentration inhibiting cytotoxicity ([1]; in the presence of 4 μM linoleic acid): about 100 nM

Leu Pro Pro Ala Ala Xaa Gln Ile Ser Gln Gln (LPPAA[Sec]QISQQ; listed as Human plasma) [Peptide 16]
Activity/1 mM Sec [2]: 24,000

KRCINQLLCKLPTDSELAPRS (cysteine pairing not given here) [Peptide 1]
Activity/1 mM Sec [2]: 0

Leu Ile Pro Thr Glu Ala Ser Ala Ser Xaa Arg (LIPTEASAS[Sec]R; listed as Human plasma) [Peptide 11]
Activity/1 mM Sec [2]: 28,000

O=c1c2ccccc2[se]n1-c1ccccc1 [Ebselen]
toxicity upon addition to cell culture [3]: exhibited a strong toxicity

Arg Ser Xaa Cys Cys His Cys Arg His Leu Ile Phe Glu Lys (RS[Sec]CCHCRHLIFEK; cysteine pairing not given here; listed as Human plasma) [Peptide 3]
Activity/1 mM Sec [2]: 95,000

C[Se]CC[C@H](N)C(=O)O [selenomethionine]
effective minimum concentration of selenium to inhibit 80% or more of cytotoxicity [3]: around 1 μM
increase in intracellular GPX activity ([4]; 10 nM): increase in the activity could scarcely be observed

N[C@@H](C[Se][Se]C[C@H](N)C(=O)O)C(=O)O [selenocystine]
toxicity upon addition to cell culture [3]: fairly strong toxicity
increase in intracellular GPX activity [4, 6]: around 50%

Arg Ser Xaa Ser Cys His Cys Arg His Leu Ile Phe Glu Lys (RS[Sec]SCHCRHLIFEK; cysteine pairing not given here; listed as Human plasma) [Peptide 4]
Activity/1 mM Sec [2]: 24,000

Thr Gly Ser Ala Ile Thr Xaa Gln Ser Lys (TGSAIT[Sec]QSK; listed as Human plasma) [Peptide 8]
Activity/1 mM Sec [2]: 79,000

CCCCC/C=C\C/C=C\CCCCCCCC(=O)O [linoleic acid]
fatty acid concentration inducing cytotoxicity [1]: ≥ 4 µM

Lys Glu Phe Ile Leu His Arg Ser His Ser Ser Xaa Ser Arg (KEFILHRSHSS[Sec]SR; listed as Human plasma) [Peptide 14]
Activity/1 mM Sec [2]: 95,000

Xaa Pro Ser Asn ([Sec]PSN; listed as Human plasma) [Peptide 13]
Activity/1 mM Sec [2]: 24,000

CCCCC/C=C\C/C=C\C/C=C\C/C=C\CCCCCC(=O)O [adrenic acid]
induction of cytotoxicity by fatty acid ([1]; 10 μM, serum free culture, absence of selenoprotein P): induced cytotoxicity

Glu Asn Leu Pro Ser Leu Ser Ser Xaa Gln Gly Leu Arg (ENLPSLSS[Sec]QGLR; listed as Human plasma) [Peptide 9]
Activity/1 mM Sec [2]: 24,000

CC[C@H](C)[C@H](NC(=O)[C@H](CC(C)C)NC(=O)[C@H](Cc1c[nH]cn1)NC(=O)[C@H](CCCNC(=N)N)NC(=O)[C@H](CO)NC(=O)[C@H](Cc1c[nH]cn1)NC(=O)[C@H](CO)NC(=O)[C@H](CO)NC(=O)[C@H](C[SeH])NC(=O)[C@H](CO)NC(=O)[C@@H](N)CCCNC(=N)N)C(=O)N[C@@H](Cc1ccccc1)C(=O)N[C@@H](CCC(=O)O)C(=O)N[C@@H](CCCCN)C(=O)O [Peptide 6] (H-RS[Sec]SSHSRHLIFEK-OH)
cytotoxicity-inhibitory activity ([2]; result in words): could inhibit cytotoxicity most effectively at the lowest concentration

Arg Ser Xaa Ser Ser His Cys Arg His Leu Ile Phe Glu Lys (RS[Sec]SSHCRHLIFEK; listed as Human plasma) [Peptide 5]
Activity/1 mM Sec [2]: 16,000

Lys Asn Gln Ala Lys Lys Xaa Glu (KNQAKK[Sec]E; listed as Human plasma) [Peptide 12]
Activity/1 mM Sec [2]: 24,000

O=[Se](O)O [sodium selenite]
concentration at which toxicity was observed ([3]; on the basis of selenium concentration, 4 to 5 days culture): around 500 nM
increase in intracellular GPX activity [4, 6]: around 50%

Ala Glu Glu Asn Ile Thr Glu Ser Ser Gln Xaa Arg (AEENITESSQ[Sec]R; listed as Human plasma) [Peptide 10]
Activity/1 mM Sec [2]: 6,000

Arg Ser Xaa Ser (RS[Sec]S; listed as Human plasma) [Peptide 7]
Activity/1 mM Sec [2]: 95,000

Lys Arg Cys Ile Asn Gln Leu Leu Cys Lys Leu Pro Thr Asp Ser Glu Leu Ala Pro Arg Ser Xaa Cys Cys His Cys Arg His Leu Ile Phe Glu Lys (KRCINQLLCKLPTDSELAPRS[Sec]CCHCRHLIFEK; cysteine pairing not given here; listed as Human plasma) [SEQ ID NO: 3, peptide fragment purified under reduced condition from selenoprotein P fragment]
cytotoxicity-inhibitory activity ([5]; result in words, assay not specified): had the cytotoxicity-inhibitory activity

CCCCC/C=C\C/C=C\C/C=C\C/C=C\CCCC(=O)O [arachidonic acid]
fatty acid concentration inducing cytotoxicity [1]: ≥ 4 µM

RSSCCHCRHLIFEK (cysteine pairing not given here) [Peptide 2]
Activity/1 mM Sec [2]: 0

B1: SEQ ID NO: 2: selenoprotein P fragment with the amino acid sequence from 260th Lys to 362nd Asn, Xaa represents selenocysteine (protein, listed as Human plasma)
chain: KRCINQLLCKLPTDSELAPRS[Sec]CCHCRHLIFEKTGSAIT[Sec]QCKENLPSLCS[Sec]QGLRAEENITESCQ[Sec]RLPPAA[Sec]QISQQLIPTEASAS[Sec]R[Sec]KNQAKK[Sec]E[Sec]PSN
cytotoxicity-inhibitory activity [5]: having the cytotoxicity-inhibitory activity

B2: full-length selenoprotein P: selenoprotein P as an intact molecule, a protein from blood components (protein, UniProt P49908 1-381, looked up)
chain: MWRSLGLALALCLLPSGGTESQDQSSLCKQPPAWSIRDQDPMLNSNGSVTVVALLQASUYLCILQASKLEDLRVKLKKEGYSNISYIVVNHQGISSRLKYTHLKNKVSEHIPVYQQEENQTDVWTLLNGSKDDFLIYDRCGRLVYHLGLPFSFLTFPYVEEAIKIAYCEKKCGNCSLTTLKDEDFCKRVSLATVDKTVETPSPHYHHEHHHNHGHQHLGSSELSENQQPGAPNAPTHPAPPGLHHHHKHKGQHRQGHPENRDMPASEDLQDLQKKLCRKRCINQLLCKLPTDSELAPRSUCCHCRHLIFEKTGSAITUQCKENLPSLCSUQGLRAEENITESCQURLPPAAUQISQQLIPTEASASURUKNQAKKUEUPSN
modifications: full-length
notes: selenoprotein P as an intact molecule, a protein from blood components
toxicity upon addition to cell culture [3]: no strong toxicity
